US20260091078A1, “OLIGOPEPTIDE THAT INHIBITS ANGIOGENESIS AND VASCULAR FUNCTION” (UNIVERSIDAD NACIONAL AUTONOMA DE MEXICO, priority 2019, published 2026)

What was measured:
[1] = system: immortalized bovine umbilical-vein endothelial cells (BUVEC E6E7); assay: Proliferation of BUVEC E6E7 endothelial cells stimulated with VEGF (EdU click assay); type: cell-based; conditions: 100 nM, VEGF 50 ng ml^-1
Experimental: (§1) On a 96-well plate treated for cell culture, BUVEC E6E7 and HUVEC cells were seeded at a density of ˜14,000 and ˜11,000 cells cm^−2, respectively. BUVEC E6E7 cells were maintained in F12K culture media with 10% (v/v) fetal bovine serum (FBS) and the HUVEC in F12K media supplemented with 20% of FBS, 100 μg ml^−1 heparin and 25 μg ml^−1 of endothelial cell growth supplement (ECGS). After 24 hours, the cells were starved with FBS-reduced media (0.1% of FBS for BUVEC E6E7 and 0.5% for HUVEC) for 16 hours to synchronize cells in phase GO of the reproductive cycle. After this time, FBS and heparin were replenished only to HUVEC. The cells were then treated with vasoinhibin or the oligopeptide THGRGFI in concentrations ranging from 0.001 to 100 nM for 24 hours in the presence of 10 μM of the thymidine analog 5-Ethynyl-2′-deoxyuridine (EdU) and 50 ng ml^−1 VEGF for the BUVEC E6E7 or the combination of 25 ng ml^−1 VEGF and 20 ng ml^−1 bFGF for HUVEC. At the end of the experiment, cells were fixed with 4% paraformaldehyde, permeabilized with 0.5% Triton X-100 in TBS1x, and stained to detect the newly synthetized DNA by the incorporation of EdU using the “click” assay (which involves a copper catalyzed reaction to covalently bind fluorescent azide to the EDU incorporated to DNA). Total DNA was counterstained with Hoechst 33342 and the “click”-stained nuclei were quantified and plotted relative to the total number of Hoechst 33342-stained nuclei.
For the assay, BUVEC E6E7 cells were seeded at a density of ˜14′000 cells cm^−2 in a 96 well plate with F12K with 10% (v/v) FBS. After 24 hours, cells were starved with 0.1% of FBS for GO synchronization for ˜16 hours. Next, the cells were treated with the different oligopeptides in presence of 10 μM of the thymidine analog EdU and 50 ng ml^−1 of VEGF. Finally, the cells were fixed, permeabilized, and stained for the newly synthetized DNA by the EdU incorporation through the ‘click’ assay. The total DNA was stained with Hoechst 33342 and the percentage of ‘click’-stained nuclei over the total nuclei was a measure of proliferation.

[2] = system: human umbilical-vein endothelial cells (HUVEC); assay: Proliferation of HUVEC stimulated with VEGF and bFGF (EdU click assay); type: cell-based; conditions: for dose-response effect (biological potency) on proliferation of HUVEC: different doses, 24 hours, VEGF 25 ng ml^-1 and bFGF 20 ng ml^-1
Experimental: as §1
HUVEC were seeded on a 96 well plate at a density of ˜11,000 cells cm^−2 and maintained in F12K supplemented with 20% of FBS, 100 μg ml^−1 heparin and 25 μg ml^−1 endothelial cell growth supplement (ECGS). After 24 hours, the cells were synchronized in GO with starving conditions (FBS 0.5%) for 16 hours, and after that FBS and the heparin were replenished. Cells were then treated with THGRGFI, the different oligopeptides and 123 amino acids vasoinhibin, each in a concentration of 100 nM, for 24 hours in presence or absence of 10 μM of thymidine analog 5-Ethynyl-2′-deoxyuridine (EdU) and a combination of 25 ng ml^−1 VEGF and 20 ng ml^−1 bFGF. Finally, the cells were fixed with 4% paraformaldehyde, permeabilized with 0.5% of Triton X-100 in TBS1x and stained for the newly synthetized DNA with the ‘click’ method that detects the EdU incorporation. Total DNA was stained with Hoechst 33342 and the percentage of ‘click’-stained nuclei relative to total nuclei (Hoechst 33342-stained) indicated cell proliferation.
Approximately 11,000 HUVEC cells cm^−2 were seeded on a 96 well plate in F12K media with 20% FBS, 100 μg ml^−1 heparin and 25 μg ml^−1 ECGS. After 24 hours, cells were starved with 0.5% of FBS for ˜16 hours, and after that time the FBS and heparin were added again and cells treated with different doses of the alanine substituted oligopeptides for 24 hours, in the presence of EdU and a combination of 25 ng ml^−1 VEGF and 20 ng ml^−1 bFGF. Finally, the cells were fixed, permeabilized and stained to quantify the synthesis of DNA as a sign of proliferation.

| Substance | effect on VEGF-induced proliferation of BUVEC E6E7 at single concentration [1] | dose-response effect (biological potency) on proliferation of HUVEC [2] | further results |
| --- | --- | --- | --- |
| GFITKAI (Amino acids 49 to 55 of human prolactin; listed as Homo sapiens) | did not shown any activity | – | – |
| GRGFITK (Amino acids 47 to 53 of human prolactin; listed as Homo sapiens) | significatively inhibited the VEGF-induced proliferation of endothelial cells | – | – |
| His Gly Arg [HGR] | – | very similar to the oligopeptide THGRGFI | – |
| R4A: THGRGFI with the arginine at position X4 substituted by alanine (THGAGFI) | – | did not inhibit endothelial proliferation | – |
| THIRGGF (scrambled sequence of SEQ ID NO 1) [Scr2, reference compound] | – | – | effect on proliferation of HUVEC at single concentration ([2]; 100 nM, VEGF 25 ng ml^-1 and bFGF 20 ng ml^-1, 24 hours): did not have any effect |
| TKAINSC (Amino acids 52 to 58 of human prolactin; listed as Homo sapiens) | did not shown any activity | – | – |
| Thr His Gly Arg (THGR; Amino acids 45 to 48 of human prolactin; listed as Homo sapiens) | – | very similar to the oligopeptide THGRGFI | – |
